Source: PMC6020762, “An Integrative Volatile Terpenoid Profiling and Transcriptomics Analysis for Gene Mining and Functional Characterization of AvBPPS and AvPS Involved in the Monoterpenoid Biosynthesis in Amomum villosum” (Frontiers in Plant Science, 2018)

Tests used:
AvBPPS (AvTPS3) [1] = biological target: T1, AvBPPS (AvTPS3) (Wurfbainia villosa, UniProt A0A2Z4K4Q8); experiment: GC-MS product analysis; assay type: biochemical; conditions: 25 mM HEPES pH 7.0, 5 mM MgCl2, 5 mM DTT, 30 °C, 2 h
T1 construct: gene TPS3; predicted 25-residue N-terminal transit peptide removed (full ORF 596 aa); E. coli Rosetta (DE3); Ni column
T1 sequence (A0A2Z4K4Q8 26-596): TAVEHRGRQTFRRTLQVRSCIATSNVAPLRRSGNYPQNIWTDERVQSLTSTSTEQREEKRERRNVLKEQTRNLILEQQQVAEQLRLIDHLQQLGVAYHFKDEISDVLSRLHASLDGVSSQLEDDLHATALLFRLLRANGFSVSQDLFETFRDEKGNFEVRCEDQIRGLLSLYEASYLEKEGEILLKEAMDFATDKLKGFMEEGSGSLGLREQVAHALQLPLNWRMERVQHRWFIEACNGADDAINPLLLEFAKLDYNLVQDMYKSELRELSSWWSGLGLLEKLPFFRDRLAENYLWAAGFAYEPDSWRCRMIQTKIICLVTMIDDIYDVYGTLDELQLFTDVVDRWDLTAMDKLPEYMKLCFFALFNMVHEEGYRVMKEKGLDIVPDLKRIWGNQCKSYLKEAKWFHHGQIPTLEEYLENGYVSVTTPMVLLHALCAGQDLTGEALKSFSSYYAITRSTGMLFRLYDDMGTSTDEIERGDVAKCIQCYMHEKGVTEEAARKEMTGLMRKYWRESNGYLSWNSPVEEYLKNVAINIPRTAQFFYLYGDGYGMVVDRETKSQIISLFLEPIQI

AvBPPS (AvTPS3) [2] = biological target: T1, AvBPPS (AvTPS3); experiment: GC-MS of borneol after alkaline phosphatase dephosphorylation; assay type: biochemical; conditions: from GPP; 25 mM HEPES pH 7.0, 5 mM MgCl2, 5 mM DTT, 30 °C, 1 h, then alkaline phosphatase 37 °C
[3] = substrate: CC(C)=CCC/C(C)=C/COP(=O)(O)OP(=O)(O)O; experiment: GC-MS product assay, kinetic analysis; assay type: biochemical, Wurfbainia villosa; conditions: Mg2+ present

**Q.** For CC(C)=CCC/C(C)=C/COP(=O)(O)OP(=O)(O)O [GPP], which GC-MS product analysis (AvBPPS (AvTPS3) [1]) is on record?
**A.** AvTPS3 was found to catalyze GPP to produce three monoterpene compounds

**Q.** Which “GC-MS of borneol after alkaline phosphatase dephosphorylation” value (AvBPPS (AvTPS3) [2]) does the source give for CC1(C)C2CCC1(C)C(OP(=O)(O)OP(=O)(O)O)C2 (stereo not drawn) [bornyl diphosphate] here?
**A.** we identified AvTPS3 as bornyl diphosphate synthase (AvBPPS) according to its most abundant product

B1: AvPS (AvTPS1) (Wurfbainia villosa) (protein)
chain: AAEESQSLSSTTSRRSGNYQPSIWTHDRIQSLTLSHAAADEEDHAEEIKLLKYQTSKLMEEKKGRVEEQLQLIDHLQQLGVAYHFKDEIKDTLRGFHASFEDVSLQLRDNLHASALLFRLLRENGFSVSEDIFKKFKDEKAGQFEDRLQSQAEGLLSLYEASYLEKDGEELLHEAREFTTKHLKNLLEEEGSLKPGLIREQVAHALELPLNWRFQRLHTKWFIGAWQRDPAMDPALLGLAKLDFNALQNIYKRELKEASRWWTDLGLPQKLPFFRDRLTENYLWTVGWAFEPDSWAFRELQTKINCFITLIDDVYDVYGTLDELELFTDIMERWDVNSIDKLPEYMKICFLAVFNTVNDAGYEVIRDKGVDIIPYLKRAWAELCKMYMREARWYHAGYTPTLDEYLDGAWISISGALILSTAYCMGNDLTKDDLDKFSTYPAVMHPSCMLLRLHDDFGTSTDELARGDVQKAVQCCMHERKVPEAVAREHIMQVMEAKWRLLNGNRVATSSFEEYFLNVAINIPRSAQFFYGQGDGYGKSDGETKKQVISLLIEPVQF
notes: predicted 42-residue N-terminal transit peptide removed (full ORF 600 aa); E. coli Rosetta (DE3); Ni column
**Q.** With B1 as the molecule, how does the Km [3] read?
**A.** 1.99 µM
